Measured values published in US20060019922A1, “Selective killing of cancerous cells” (The University of North Carolina, priority 2004, published 2006).

Legend:
[1] = system: Saos-2/p53+ cells; test: Colony-formation assay with GCV in Saos-2/p53-positive cells; assay type: cell-based, human; details: Saos 2/p53-positive cells co-transfected with pRL-2MDR-TKp-TK; especially at higher GCV concentrations
From the text: (§1) FIGS. 9A and 9B depict regulation of the response to GCV by K2-5F induced by endogenous p53. Saos-2/p53-negative (FIG. 9A) and Saos-2/p53-positive (FIG. 9B) cells were co-transfected with plasmid pRL-2MDR-TKp-TK without (black bars) or with (gray bars) co-transfection of pFR-2p21-K2-5F. White bars represent cells transfected with empty vectors. All cells were also transfected with a β-galactosidase-expressing plasmid. After twenty-four hours, 600 cells were re-plated in 10-cm plates, and after another twenty-four hours, GCV was administered in varying concentrations. After ten days, surviving blue colonies larger than 50 cells were counted. Survival was expressed as a percentage of colonies formed at 0 GCV. […] The x-axis indicates the concentration of GCV in micromoles. The y-axis indicates the percentage of cell survival compared with cells not treated with GCV.
(§2) Cells were transfected with the plasmids indicated, along with a β-galactosidase-expressing plasmid to mark the transfected cells. […] After 10 days, surviving blue (β-galactosidase-positive) colonies larger than 50 cells were counted. Survival was expressed as a percentage of colonies formed at 0 GCV.
(§3) The pharmacological effect of K2-5F induced by endogenous p53 in stably transfected Saos-2 cells was investigated. […] The cells were then treated with GCV, and cell viability was evaluated with the use of a colony-formation assay. […]

[2] = system: HEK 293T cells; test: GCV sensitivity assay (luciferase or β-galactosidase activity as cell viability) in transfected HEK 293T cells; assay type: cell-based; details: Homo sapiens, 96 h, four days of GCV
From the text: FIG. 4 is a graphical representation of regulation of the response to GCV by constitutively expressed K2-5F. Cells (HEK 293T) were co-transfected with equal amounts of the following plasmids: pRL-2MDR-TKp-TK and pcDNA3.1A (Δ), pRL-2MDR-TKp-TK and pcK2-5F (◯), or pcDNA3.1A and PRL-TK (□). All cells were also co-transfected with a luciferase-expressing plasmid (FIG. 4A) or a β-galactosidase-expressing plasmid (FIG. 4B) as a marker. After twenty-four hours, cells in each well were re-plated evenly into six-well plates, and in another twenty four hours, GCV was administered in varying concentrations. Luciferase (FIG. 4A) or β-galactosidase (FIG. 4B) activities were measured after four days of treatment by GCV. Results are expressed as a percentage of the enzymatic activities at 0 GCV for each set of plasmids.
(§4) Cells were seeded in twelve-well plates and transfected as described above. […] After four days of treatment, cells were lysed, and luciferase activities or β-galactosidase activities were measured according to the manufacturer's protocol (Promega Corp., Madison, Wis., United States of America). Cell viability was estimated by luciferase activity or β-galactosidase activity, with results expressed as a percentage of the activity in the absence of GCV. […]

[3] = system: HEK 293 cells; test: GCV sensitivity assay (luciferase) in transfected HEK 293 cells; assay type: cell-based, human; details: HEK 293 cells with TK, K2-5F and p53 vectors vs TK vector only or TK plus K2-5F vector
From the text: FIG. 6 is a graphical representation of regulation of the response to GCV by p53-induced K2-5F. Cells (HEK 293) were co-transfected with the following plasmids: pRL-2MDR-TKp-TK and pFR-2p21-K2-5F (Δ); pRL-2MDR-TKp-TK, pFR-2p21-K2-5F, and pCMV-P53-Myc (∇); or pRL-2MDR-TKp-TK and pcK2-5F (◯). The total DNA amount was adjusted by pcDNA3.1A and/or PRL-TK. A ratio of 1:20:1 between pRL-2MDR-TKp-TK, pFR-2p21-K2-5F, and pCMV-P53-Myc was used. (□) represents cells transfected with both control vectors. After twenty-four hours, cells in each well were replated uniformly into six-well plates, and after another twenty four hours, GCV was administered in varying concentrations. Luciferase activities were measured after four days of treatment with GCV. Results are expressed as a percentage of the luciferase activities at 0 GCV.
as §4

[4] = system: Saos-2/p53- cells; test: Colony-formation assay with GCV in Saos-2/p53-negative cells; assay type: cell-based, human
From the text: as §1, §2, §3

Structure (SMILES): Nc1nc(O)c2ncn(COC(CO)CO)c2n1 [GCV, ganciclovir]
- effect of K2-5F-expressing plasmid on the dose-survival curve for GCV [1]: substantial protective effect
- IC50 ([2]; HEK 293T cells transfected with both pRL-2MDR-TKp-TK and pcK2-5F): ~10 µM
- IC50 ([2]; HEK 293T cells transfected with pRL-2MDR-TKp-TK alone): ~0.2 µM
- right shift of the dose-response profile [3]: approximately 1 log
- effect of K2-5F-expressing plasmid on the dose-survival curve for GCV ([4]; Saos2/p53-negative cells co-transfected with pRL-2MDR-TKp-TK, colonies after 10 days): no effect
- concentration of GCV required to attain toxicity ([4]; Saos-2 cells compared with HEK 293 cells): higher concentration
